Where a name gives a salt, the structure may show the parent alone. Read-outs that look alike come from different tables or passages of the source.
How the values were obtained:
[1] = biological target: T1, 5-HT3 receptors (Rattus norvegicus, UniProt P35563); assay: biochemical; format: binding
T1 sequence (P35563 24-483): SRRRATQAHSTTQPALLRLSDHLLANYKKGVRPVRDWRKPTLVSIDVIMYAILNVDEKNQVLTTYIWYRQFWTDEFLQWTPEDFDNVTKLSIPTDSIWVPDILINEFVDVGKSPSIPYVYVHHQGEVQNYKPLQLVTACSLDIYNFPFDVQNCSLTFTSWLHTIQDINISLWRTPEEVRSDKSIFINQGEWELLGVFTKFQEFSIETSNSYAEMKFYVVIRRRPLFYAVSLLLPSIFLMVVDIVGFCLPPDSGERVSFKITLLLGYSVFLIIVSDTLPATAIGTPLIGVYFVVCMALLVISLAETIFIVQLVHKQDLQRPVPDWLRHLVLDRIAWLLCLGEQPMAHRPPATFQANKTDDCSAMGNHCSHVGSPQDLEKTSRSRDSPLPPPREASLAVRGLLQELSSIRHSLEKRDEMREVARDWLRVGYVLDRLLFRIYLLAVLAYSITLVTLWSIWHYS
Description: A membranous fraction prepared from the cerebral cortex of rats was incubated with the test compound and with ^3 H-GR65630 (to a final concentration of 1 nM, as a ligand to the 5-HT3 receptors) at 37° C. for 45 minutes. At the end of this time, the samples were filtered. The ^3 H radioactivity bound to the filter paper was determined by a scintillation counter as in Experiment 1.

[2] = biological target: T2, M1 receptors (Rattus norvegicus, UniProt P08482); assay: biochemical; format: binding
T2 sequence (P08482 1-460): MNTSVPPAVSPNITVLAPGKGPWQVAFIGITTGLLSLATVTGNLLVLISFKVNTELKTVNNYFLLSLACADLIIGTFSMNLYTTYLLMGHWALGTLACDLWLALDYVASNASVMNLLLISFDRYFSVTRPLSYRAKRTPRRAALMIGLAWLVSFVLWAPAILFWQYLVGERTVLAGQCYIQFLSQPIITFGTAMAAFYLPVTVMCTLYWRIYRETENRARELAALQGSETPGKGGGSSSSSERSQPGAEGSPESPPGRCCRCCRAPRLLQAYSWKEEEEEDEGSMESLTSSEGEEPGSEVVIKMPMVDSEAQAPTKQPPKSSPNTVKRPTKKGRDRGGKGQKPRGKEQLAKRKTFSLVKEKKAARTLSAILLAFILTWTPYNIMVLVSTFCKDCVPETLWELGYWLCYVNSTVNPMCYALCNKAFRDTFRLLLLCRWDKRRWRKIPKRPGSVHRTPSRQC

[3] = biological target: T3, M2 receptors (Rattus norvegicus, UniProt P10980); assay: biochemical; format: binding
T3 sequence (P10980 1-466): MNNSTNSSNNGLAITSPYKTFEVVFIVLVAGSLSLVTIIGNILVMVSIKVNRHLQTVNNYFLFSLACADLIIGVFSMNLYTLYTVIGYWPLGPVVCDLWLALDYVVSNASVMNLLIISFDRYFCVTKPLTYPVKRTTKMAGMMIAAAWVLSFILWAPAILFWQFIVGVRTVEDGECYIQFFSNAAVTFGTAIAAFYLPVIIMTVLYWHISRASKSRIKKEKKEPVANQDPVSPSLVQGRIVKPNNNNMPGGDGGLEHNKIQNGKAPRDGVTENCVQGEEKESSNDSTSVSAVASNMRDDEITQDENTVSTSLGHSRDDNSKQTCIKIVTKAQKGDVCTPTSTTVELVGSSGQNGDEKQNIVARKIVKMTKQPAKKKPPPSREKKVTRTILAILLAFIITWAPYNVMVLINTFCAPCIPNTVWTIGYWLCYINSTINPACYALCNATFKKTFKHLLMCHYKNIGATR

[4] = system: reserpine-induced ptosis in mice; assay: Anti-reserpine effect: antagonistic effect against reserpine-induced ptosis; format: in vivo, mouse (ddY strain); conditions: for Maximum inhibition rate (%): reserpine 2 mg/kg s.c., 90 minutes
From the text: It is considered that the sedation caused by the administration of reserpine or tetrabenazine to mice or rats produces an effect similar to the symptoms of clinical depression. Of the various pharmacological effects caused by these compounds, ptosis (drooping of the upper eyelid) and a reduction in body temperature have been widely used as indices of their activity, and it has been shown that any compound which inhibits either ptosis or lowering of the body temperature will also be active against the symptoms of clinical depression. Therefore, anti-reserpine or anti-tetrabenazine effects have been widely used for a long time as a method of screening for antidepressants. The test index used for the evaluation of the compounds of the present invention is the antagonistic effect of a test compound against reserpine-induced ptosis in mice.
The test animals employed were mature male mice of the ddY strain, 4 weeks old and each weighing 22 to 27 g. The animals were divided into groups, each including 3 mice. The compound under test was dissolved or suspended in an appropriate solvent [either physiological saline or a 0.5% CMC (carboxymethyl cellulose) solution] and administered orally to the mice of the test groups in the dose specified in the following Table 6. The mice in a control group were given only the solvent without any active compound, administered in a similar way. Immediately after administration,2 mg/kg of reserpine were administered subcutaneously to every mouse. After 90 minutes, it was determined how much the eyelids had closed (degree of ptosis) by bringing the mouse out of its cage and observing the shape of the eye.
From the scores obtained, the inhibition rate at each dose level was calculated from the following equation: [formula]

[5] = system: blood viscosity increase resulting from cerebral ischemia; assay: Inhibition of blood viscosity increase resulting from cerebral ischemia; format: in vivo, rat (Wistar strain); conditions: oral; one hour after carotid ligation; shear 37.5, 75, 150 and 375/sec
Description: The test animals used were adult male rats of the Wistar strain. Each rat was administered orally either a solution of 3-(3-quinuclidinyloxy)isoxazole hydrochloride (the compound prepared as described in Example 4) in suspension in a 0.5% CMC vehicle or the vehicle itself. Immediately after administration, 40 mg/kg of pentobarbital was administered intraperitoneally for anesthesia. The rat was fixed at the dorsal position, and 0.6 ml of a blood sample was taken from the common jugular vein on one side. The viscosity of each sample was measured using a viscometer (Biorheolyzer, a trade name for product of Tokyo Keiki) at shear values of 37.5/sec, 75/sec, 150/sec and 375/sec. 0.5 ml of blood was then taken from the other side and its viscosity was measured in the same way.
After the first two samples had been taken, the carotid arteries on both sides of each animal were ligated. One hour after ligation, in the case of the control animals (administered only the vehicle), the blood viscosity values had increased by between 5 and 20% at every shear rate (the slower the shear rate, the higher the viscosity).

[6] = system: mice; assay: Acute toxicity; format: in vivo, mouse; conditions: 75 mg/kg, 5 days observation
Description: Each of the compounds of Examples 3 and 4 was suspended in a 0.5% CMC solution, and the suspension was administered to mice in an amount sufficient to provide a dose of active compound of 75 mg/kg.

[7] = system: isolated guinea pig ileum (selective 5-HT3 agonist 2-methyl-5-HT); assay: Effects upon the isolated guinea pig ileum: inhibition of contraction by 2-methyl-5-HT; conditions: for Inhibition (%): 10^-6 M, contractile force by 2-methyl-5-HT, 30 minutes after addition
Description: The ileum isolated from a guinea pig was hung in a Magnus cup filled with Tyrode's solution. The contractile force exerted by the ileum on the application of a selective 5-HT3 agonist, 2-methyl-5-HT, was determined using an isometric transducer. A test compound was then added to the bath and the contractile force was again measured 30 minutes after the addition. The inhibition rate on the contractile force was calculated.

[8] = 3H-GR65630 1 nM, rat cerebral cortex membrane, 37° C., 45 minutes
[9] = 3H-pirenzepine 1 nM, rat cerebral cortex membrane, 30° C., 60 minutes, read-out: IC50 Pirenzp (a) (cerebral cortex)
[10] = ratio IC50 QNB (heart) / IC50 Pirenzp (cerebral cortex)

Clc1ccc2onc(OC3CN4CCC3CC4)c2c1 (stereo not shown) [Example A6, 5-Chloro-3-(3-quinuclidinyloxy)-1,2-benzisoxazole]
IC50 [1, 8]: 180 nM

CCN1C(=O)CC2(CCN(C)CC2)C1=O [Example B2]
IC50 [2, 9]: 3100 nM | M1 selectivity (b)/(a) [2, 10]: 6.8 | IC50 ([3]; read-out: IC50 QNB (b) (heart)): 21 µM

Cc1cc(OC2CN3CCC2CC3)no1.Cl (stereo not shown) [Example A4, 5-Methyl-3-(3-quinuclidinyloxy)isoxazole hydrochloride]
Assessment ([4]; 30 mg/kg po): ± (from 41% to 70%) | Maximum inhibition rate (%) ([4]; 30 mg/kg po): 45% | Assessment ([4]; 100 mg/kg po): + (inhibition rates not less than 71%) | Maximum inhibition rate (%) ([4]; 100 mg/kg po): 80%

Clc1ccc(-c2cc(OC3CN4CCC3CC4)no2)cc1 (stereo not shown) [Example A7, 5-(p-Chlorophenyl)-3-(3-quinuclidinyloxy)isoxazole hydrochloride]
IC50 [1]: 320 nM

CN1CCC(Oc2noc3ccc(Cl)cc23)CC1.Cl [Example A1, 5-Chloro-3-(1-methyl-4-piperidyloxy)-1,2-benzisoxazole hydrochloride]
IC50 [2, 9]: 1900 nM | M1 selectivity (b)/(a) [2, 10]: 22 | IC50 ([3]; read-out: IC50 QNB (b) (heart)): 41 µM

O=C1CCCN1CC#CCN1CCCC1 [Example B1, Oxotremorine]
IC50 [2]: 1300 nM | M1 selectivity (b)/(a) [2]: 0.9 | IC50 [3]: 1.2 µM

c1csc(-c2cc(OC3CN4CCC3CC4)no2)c1 (stereo not shown) [Example A9, 3-(3-Quinuclidinyloxy)-5-(2-thienyl)isoxazole hydrochloride]
IC50 [1]: 150 nM

Cl.c1cc(OC2CN3CCC2CC3)no1 (stereo not shown) [Example A3, 3-(3-Quinuclidinyloxy)isoxazole hydrochloride]
Assessment ([4]; 1 mg/kg po): - (not more than 40%) | Maximum inhibition rate (%) ([4]; 1 mg/kg po): 21% | Assessment ([4]; 3 mg/kg po): ± (from 41% to 70%) | Maximum inhibition rate (%) ([4]; 3 mg/kg po): 57% | Assessment ([4]; 10 mg/kg po): + (inhibition rates not less than 71%) | Maximum inhibition rate (%) ([4]; 10 mg/kg po): 86% | Assessment ([4]; 30 mg/kg po): + (inhibition rates not less than 71%) | Maximum inhibition rate (%) ([4]; 30 mg/kg po): 100% | inhibition of blood viscosity increase [5]: the increase was significantly inhibited at every shear rate | adverse symptoms [6]: nor did the mice exhibit any adverse symptoms | deaths [6]: no deaths were observed

Clc1c(OC2CCCNC2)noc1-c1ccccc1 (stereo not shown) [Example A8, 4-Chloro-5-phenyl-3-(3-piperidyloxy)isoxazole hydrochloride]
IC50 [1, 8]: 260 nM

Cc1nccn1CC1CCc2c(c3ccccc3n2C)C1=O (stereo not shown) [Example B5, Ondansetron, reference compound]
Inhibition (%) [7]: 79%

Cl.Clc1c(OC2CN3CCC2CC3)noc1-c1ccccc1 (stereo not shown) [Example A5, 4-Chloro-3-(3-quinuclidinyloxy)-5-phenylisoxazole hydrochloride]
IC50 [1]: 220 nM | 5-HT3 antagonist activity (in words) [7]: as potent an antagonist as ondansetron | Inhibition (%) [7]: 82%

CC1OC2(CS1)CN1CCC2CC1 (stereo not shown) [Example B3]
IC50 [2, 9]: 3600 nM | IC50 ([3]; 3H-quinuclidinyl benzylate 0.12 nM, rat heart membrane, 30° C., 120 minutes, read-out: IC50 QNB (b) (heart)): 14 µM

Cc1onc(OC2CN3CCC2CC3)c1Cl.Cl (stereo not shown) [Example A2, 4-Chloro-5-methyl-3-(3-quinuclidinyloxy)isoxazole hydrochloride]
Assessment ([4]; 3 mg/kg po): - (not more than 40%) | Maximum inhibition rate (%) ([4]; 3 mg/kg po): 60% | Assessment ([4]; 30 mg/kg po): + (inhibition rates not less than 71%) | Maximum inhibition rate (%) ([4]; 30 mg/kg po): 100% | adverse symptoms [6]: nor did the mice exhibit any adverse symptoms | deaths [6]: no deaths were observed

From US5643923A, “Quinuclidinyloxy-isoxazole compounds and their therapeutic uses” (Sankyo Company, Limited, priority 1990, dated 1997)
